Reference: article PMC6981581, “N-(2-Arylmethylthio-4-Chloro-5-Methylbenzenesulfonyl)amide Derivatives as Potential Antimicrobial Agents—Synthesis and Biological Studies” (International Journal of Molecular Sciences, 2019)
In brackets after ≈: the same amount, converted by molar mass. Several values for one entry are separate records, joined by “and”; a condition that tells them apart may be missing. Equal entries are not always repeated. Where two headings read alike, the source gives them in different places.

Columns and labels:
[1] = tested on: Pseudomonas aeruginosa ATCC 15442; assay: Broth dilution MIC/MBC, reference strain; assay type: cell-based; conditions: Pseudomonas aeruginosa, ATCC15442
Method: (§1) The tests were carried out using a serial dilution method, allowing the determination of MIC (minimal concentration inhibiting bacterial growth), MBC (minimal bactericidal concentration), and MFC (minimal fungicidal concentration) values.
(§2) Antimicrobial activity was tested using the following reference strains: Staphylococcus aureus ATCC 6538 (MSSA), Staphylococcus aureus ATCC 43300 (MRSA), Staphylococcus epidermidis PCM 2118, Escherichia coli ATCC 11229, Pseudomonas aeruginosa ATCC 15442, Proteus vulgaris NCTC 4635, Enterococcus faecalis ATCC 11420, and Candida albicans ATCC 10231.
(§3) A broth dilution method was used to determine minimal inhibitory concentration (MIC) for tested compounds as recommended by Clinical Laboratory Standards Institute (CLSI) guidelines. Investigated compounds were diluted in Mueller Hinton Broth 2 (Sigma-Aldrich Co., St. Louis, MO, USA) in polypropylene 96-well plates and initial inoculum 5 × 10^5 cfu/mL were incubated at 37 °C for 18 h. MIC was taken as the lowest drug concentration at which an observable growth was inhibited. […] The loopful (10 µL) of the tested sample was transferred to Tryptic Soy Agar (TSA, Becton-Dickinson, Franklin Lakes, NJ, USA) and incubated at 37 °C for 48 h. […] Drug Solutions were made fresh on the day of the assay. All experiments were performed in triplicate.

[2] = tested on: Enterococcus faecalis ATCC 11420; assay: Broth dilution MIC/MBC, reference strain; assay type: cell-based; conditions: Enterococcus faecalis, ATCC11420
Method: as §1, §2, §3

[3] = tested on: Proteus vulgaris NCTC 4635; assay: Broth dilution MIC/MBC, reference strain; assay type: cell-based; conditions: Proteus vulgaris, NCTC4635
Method: as §1, §2, §3

[4] = tested on: Escherichia coli ATCC 11229; assay: Broth dilution MIC/MBC, reference strain; assay type: cell-based; conditions: Escherichia coli, ATCC11229
Method: as §1, §2, §3

[5] = tested on: Staphylococcus aureus ATCC 6538 (MSSA); assay: Broth dilution MIC/MBC, reference strain; assay type: cell-based; conditions: Staphylococcus aureus
Method: as §1, §2, §3

[6] = tested on: Staphylococcus aureus ATCC 43300 (MRSA); assay: Broth dilution MIC/MBC, reference strain; assay type: cell-based; conditions: Staphylococcus aureus
Method: as §1, §2, §3

[7] = tested on: Staphylococcus epidermidis PCM 2118; assay: Broth dilution MIC/MBC, reference strain; assay type: cell-based
Method: as §1, §2, §3

[8] = tested on: S.aureus 56 (MSSA); assay: Broth dilution MIC/MBC, clinical MSSA isolate; assay type: cell-based; conditions: Staphylococcus aureus, MSSA
Excerpt: (§4) […]. Both MRSA and MSSA strains were derived from various human infections.
(§5) […]. Five methicillin-resistant S. aureus strains were isolated from nose (n = 1), bronchoalveolar lavage (n = 1), sputum (n = 1), wound (n = 1), and blood (n = 1); five methicillin-susceptible S. aureus strains were isolated from throat (n = 1), bronchoalveolar lavage (n = 1), sputum (n = 1), abscess (n = 1), and blood (n = 1).
(§6) The identity of S. aureus isolates was confirmed with conventional methods and with Pastorex Staph-Plus latex agglutination kit (Bio-Rad, Marnes-la-Coquette, France) and verified applying the polymerase chain reaction (PCR) of S. aureus-specific region of the thermonuclease gene, nuc. Resistance to methicillin was first verified using cefoxitin disk (30 µg), and then, identified based on the presence of mecA gene. S. aureus ATCC®25923 (methicillin-susceptible) and S. aureus ATCC®43300 (MDR) were applied as the reference strains. Both the reference and clinical strains were stored at −80 °C, in Tryptic Soy Broth (TSB, Becton-Dickinson, Franklin Lakes, NJ, USA) supplemented with 15% glycerol.
as §3

[9] = tested on: S.aureus 57 (MSSA); assay: Broth dilution MIC/MBC, clinical MSSA isolate; assay type: cell-based; conditions: Staphylococcus aureus, MSSA
Excerpt: as §4, §5, §6, §3

[10] = tested on: S.aureus 55 (MSSA); assay: Broth dilution MIC/MBC, clinical MSSA isolate; assay type: cell-based; conditions: Staphylococcus aureus, MSSA
Excerpt: as §4, §5, §6, §3

[11] = tested on: S.aureus 59 (MSSA); assay: Broth dilution MIC/MBC, clinical MSSA isolate; assay type: cell-based; conditions: Staphylococcus aureus, MSSA
Excerpt: as §4, §5, §6, §3

[12] = tested on: S.aureus 58 (MSSA); assay: Broth dilution MIC/MBC, clinical MSSA isolate; assay type: cell-based; conditions: Staphylococcus aureus, MSSA
Excerpt: as §4, §5, §6, §3

[13] = tested on: MSSA 58 biofilm; assay: Biofilm inhibition assay (crystal violet); assay type: cell-based, Staphylococcus aureus
Method: (§7) For many decades, S. aureus has been identified as the most common etiologic agent of device related infections, associated with biofilm formation. These infections are hard to cure because the specific structure of biofilm confers resistance to the host immune response and to the action of antibiotics.
(§8) Then, 100 µL bacterial suspension prepared from fresh overnight culture by diluting with TSB to obtain the initial inoculum 2 × 10^6 CFU/mL was added. The plates were incubated for 24 h at 37 °C. After the incubation, the wells were discarded and were gently rinsed three times with PBS to remove planktonic staphylococcal cells. Then, contents of the wells were discarded and the biofilm was fixed with 200 µL methanol for 20 min and dried at room temperature for 30 min. The biofilm was stained by adding 200 µL 1.8% crystal violet solution for 15 min. After staining, the plates were rinsed with water and 200 µL bleaching solution (30% ethanol, 30% glacial acetic acid, 40% water) added for 15 min to dissolve the remaining crystal violet. A microplater reader was used to measure the absorbance of the adherent biofilm at 570 nm (OD570). […] The negative control included only the growth medium.

[14] = tested on: MRSA 51 biofilm; assay: Biofilm inhibition assay (crystal violet); assay type: cell-based, Staphylococcus aureus
Method: as §7, §8

[15] = tested on: MRSA 52 biofilm; assay: Biofilm inhibition assay (crystal violet); assay type: cell-based, Staphylococcus aureus; conditions: MRSA 52, 4 × MIC
Method: as §7, §8

[16] = tested on: MSSA 59 biofilm; assay: Biofilm inhibition assay (crystal violet); assay type: cell-based, Staphylococcus aureus; conditions: MSSA 59, 4 × MIC
Method: as §7, §8

[17] = tested on: Gram-positive reference strains; assay: Broth dilution MIC/MBC, summary over Gram-positive reference strains; assay type: cell-based
Method: […]. The tests were carried out using a serial dilution method, allowing the determination of MIC (minimal concentration inhibiting bacterial growth), MBC (minimal bactericidal concentration), and MFC (minimal fungicidal concentration) values.
as §2, §3

[18] = tested on: HaCaT cell line (human keratinocyte); assay: MTT cell viability assay; assay type: cell-based; conditions: 72 h, read-out: IC50 HaCaT
[19] = tested on: clinical isolates of methicillin-resistant S. aureus (50–54) and methicillin-sensitive S. aureus (55–59); assay: Broth dilution MIC/MBC, summary over clinical S. aureus isolates; assay type: cell-based, Staphylococcus aureus
Excerpt: as §4, §5, §6, §3

[20] = tested on: Candida albicans ATCC 10231; assay: Broth dilution MIC/MFC, reference fungal strain; assay type: cell-based; conditions: Candida albicans, ATCC10231
Method: as §1, §2, §3

[21] = tested on: S.aureus 53 (MRSA); assay: Broth dilution MIC/MBC, clinical MRSA isolate; assay type: cell-based; conditions: Staphylococcus aureus, MRSA
Excerpt: as §4, §5, §6, §3

[22] = tested on: S.aureus 50 (MRSA); assay: Broth dilution MIC/MBC, clinical MRSA isolate; assay type: cell-based; conditions: Staphylococcus aureus, MRSA
Excerpt: as §4, §5, §6, §3

[23] = tested on: S.aureus 51 (MRSA); assay: Broth dilution MIC/MBC, clinical MRSA isolate; assay type: cell-based; conditions: Staphylococcus aureus, MRSA
Excerpt: as §4, §5, §6, §3

[24] = tested on: S.aureus 54 (MRSA); assay: Broth dilution MIC/MBC, clinical MRSA isolate; assay type: cell-based; conditions: Staphylococcus aureus, MRSA
Excerpt: as §4, §5, §6, §3

[25] = tested on: S.aureus 52 (MRSA); assay: Broth dilution MIC/MBC, clinical MRSA isolate; assay type: cell-based; conditions: Staphylococcus aureus, MRSA
Excerpt: as §4, §5, §6, §3

Cc1cc(S(=O)(=O)NC(=O)C=Cc2ccccc2)c(SCc2cccc3ccccc23)cc1Cl [Compound 16, N-[4-Chloro-5-methyl-2-(naphthalen-1-ylmethylthio)benzenesulfonyl]cinnamamide]
MBC [1]: > 128 µg/mL | MIC [1]: 128 µg/mL (≈ 252 µM) | MBC [2]: > 128 µg/mL | MIC [2]: 8 µg/mL (≈ 15.7 µM) | MBC [3]: > 128 µg/mL | MIC [3]: 128 µg/mL (≈ 252 µM) | MBC [4]: > 128 µg/mL | MIC [4]: 128 µg/mL (≈ 252 µM) | MBC [5]: > 128 µg/mL | MIC [5]: 4 µg/mL (≈ 7.87 µM) | MBC [6]: > 128 µg/mL | MIC [6]: 4 µg/mL (≈ 7.87 µM) | MBC ([7]; S. epidermidis PCM 2118): 4 µg/mL (≈ 7.87 µM) | MIC ([7]; Staphylococcus epidermidis, PCM2118): 4 µg/mL (≈ 7.87 µM) | MBC ([7]; Staphylococcus epidermidis, PCM2118, S. epidermidis PCM 2118, read-out: MBC): 4 to 16 µg/mL (≈ 7.87 to 31.5 µM) | MBC [8]: > 128 µg/mL | MIC [8]: 4 µg/mL (≈ 7.87 µM) | MBC [9]: > 128 µg/mL | MIC [9]: 4 µg/mL (≈ 7.87 µM) | MBC [10]: > 128 µg/mL | MIC [10]: 4 µg/mL (≈ 7.87 µM) | MBC [11]: > 128 µg/mL | MIC [11]: 4 µg/mL (≈ 7.87 µM) | MBC [12]: > 128 µg/mL | MIC [12]: 8 µg/mL (≈ 15.7 µM) | inhibition of biofilm formation ([13]; MSSA 58, 2 × MIC): 86% | inhibition of biofilm formation ([13]; MSSA 58, concentration equal to the MIC): 44% | inhibition of biofilm formation ([14]; MRSA 51, 4 × MIC): 87–90% | inhibition of biofilm formation ([14]; MRSA 51, concentration equal to the MIC): 35% | inhibition of biofilm formation [15]: 87–90% | inhibition of biofilm formation [16]: 87–90% | MIC [17]: 4 to 8 µg/mL (≈ 7.87 to 15.7 µM) | IC50 [18]: 19 µg/mL and 38 µM | MBC ([19]; Staphylococcus aureus): > 128 µg/mL | MIC ([19]; Staphylococcus aureus): 4 to 8 µg/mL (≈ 7.87 to 15.7 µM) | MIC ([19]; summary over ten clinical MRSA and MSSA isolates (Table 4)): 4 to 8 µg/mL | MFC [20]: 128 µg/mL (≈ 252 µM) | MIC [20]: 64 µg/mL (≈ 126 µM) | MBC [21]: > 128 µg/mL | MIC [21]: 8 µg/mL (≈ 15.7 µM) | MBC [22]: > 128 µg/mL | MIC [22]: 4 µg/mL (≈ 7.87 µM) | MBC [23]: > 128 µg/mL | MIC [23]: 4 µg/mL (≈ 7.87 µM) | MBC [24]: > 128 µg/mL | MIC [24]: 8 µg/mL (≈ 15.7 µM) | MBC [25]: > 128 µg/mL | MIC [25]: 4 µg/mL (≈ 7.87 µM)
